Assay results taken from article PMC9511441, “Semisynthetic teicoplanin derivatives with dual antimicrobial activity against SARS-CoV-2 and multiresistant bacteria” (Scientific Reports, 2022).
“Also recorded” adds a separate entry of the source. Like-named read-outs stand apart in the source and are kept apart here.

Experiments:
[1] = tested on: SARS-CoV-2; assay: microbe, parasite or virus in culture; type: cell-based; conditions: for EC50: Vero E6 cells, three days, XTT, read-out: EC50, CPE reduction, SARS-CoV-2 in Vero E6 cells
[2] = Cytotoxicity in mock-infected VeroE6 cells (XTT); type: cell-based, African green monkey; conditions: African green monkey; mock-infected Vero E6 cells, three days, XTT
[3] = tested on: VeroE6 cells; assay: Cytotoxicity in mock-infected VeroE6 cells (XTT); type: cell-based, African green monkey
[4] = tested on: SARS-CoV-2; assay: microbe, parasite or virus in culture; type: cell-based; conditions: for EC50: Calu-3 cells, three days, XTT, read-out: EC50, CPE reduction, SARS-CoV-2 in Calu-3 cells
[5] = tested on: HCoV-229E; assay: CPE reduction assay, HCoV-229E in HEL cells; type: cell-based; conditions: for EC50: MTS, mean of 2–3 tests
[6] = Cytotoxicity in mock-infected HEL cells (MTS); type: cell-based, human; conditions: human; mock-infected HEL cells, MTS, mean of 2–3 tests
[7] = tested on: SARS-CoV-2 pseudovirus; assay: microbe, parasite or virus in culture; type: cell-based; conditions: for EC50: Vero cells, luciferase signal, mean ± SEM of 3 tests, read-out: EC50, inhibition of SARS-CoV-2 pseudovirus entry in Vero cells; for Inhibition of pseudovirus entry in Vero cells (in words): cathepsin-dependent endosomal pathway
[8] = tested on: SARS-CoV-2 pseudovirus; assay: microbe, parasite or virus in culture; type: cell-based; conditions: for Inhibition of pseudovirus entry in A549-AT cells (in words): TMPRSS2-mediated uptake; for EC50: A549-AT cells (ACE2 and TMPRSS2), luciferase signal, mean ± SEM of 3 tests, read-out: EC50, inhibition of SARS-CoV-2 pseudovirus entry in A549-AT cells
[9] = target: T1, human recombinant cathepsin L (Homo sapiens, UniProt P07711); assay: biochemical; type: biochemical
T1 construct: made in house; host or cells: Escherichia coli
T1 sequence (P07711 114-333): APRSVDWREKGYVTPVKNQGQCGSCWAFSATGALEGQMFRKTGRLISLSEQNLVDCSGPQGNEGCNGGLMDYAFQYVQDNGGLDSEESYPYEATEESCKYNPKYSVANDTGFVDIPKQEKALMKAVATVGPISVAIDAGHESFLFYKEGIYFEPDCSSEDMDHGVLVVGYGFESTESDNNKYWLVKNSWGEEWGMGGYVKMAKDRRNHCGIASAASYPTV
Description: Cathepsin L inhibition was assessed as reported. Briefly, human recombinant cathepsin L was expressed in Escherichia coli[33]. Enzymatic activity was determined in 100 mM acetate buffer (pH 5.5) containing 0.1% PEG 8000, 5 mM cysteine and 1.5 mM EDTA. The enzyme was first activated in assay buffer for 5 min at 37 °C, after which it was added to the wells of a black microplate containing the Z-Phe-Arg-AMC substrate (Bachem) and compounds. Formation of the fluorescent cleavage product was monitored for 50 min at 37 °C, using a Tecan Infinit M1000 spectrofluorimeter set at 460 nm emission and 380 nm excitation wavelength. All assay mixtures contained 5% (v/v) DMSO and 0.01% Triton X-100 to prevent false-positive inhibition due to formation of compound aggregates. All measurements were performed in triplicate and repeated twice. The relative inhibition was calculated using the equation: Relative inhibition (%) = 100(1 − vi/vo), where vi and vo designate the reaction velocities in the presence and absence of inhibitor, respectively. IC50 values were determined from nine data points at different inhibitor concentrations.

[10] = target: SARS-CoV-2 3CL^Pro (Severe acute respiratory syndrome coronavirus 2, UniProt P0DTD1); assay: biochemical; type: biochemical
[11] = in vitro; conditions: human
[12] = tested on: HEL cells; assay: Cytotoxicity in mock-infected HEL cells (MTS); type: cell-based, human; conditions: mock-infected HEL cells, MTS, mean of 2–3 tests
[13] = tested on: E. faecalis; assay: MIC, broth microdilution; type: cell-based
[14] = tested on: S. aureus; assay: MIC, broth microdilution; type: cell-based
[15] = tested on: S. haemolyticus; assay: MIC, broth microdilution; type: cell-based
[16] = tested on: S.pyogenes; assay: MIC, broth microdilution; type: cell-based
[17] = tested on: E. faecium; assay: microbe, parasite or virus in culture; type: cell-based
[18] = tested on: S. epidermidis; assay: microbe, parasite or virus in culture; type: cell-based
[19] = tested on: Klebsiella pneumoniae ST258 clone K 160/09; assay: MIC against Gram-negative strain; conditions: Klebsiella pneumoniae ST258 clone K 160/09
[20] = tested on: Pseudomonas aeruginosa ATCC 27853; assay: MIC against Gram-negative strain; conditions: ATCC27853
[21] = tested on: Acinetobacter baumannii ATCC BAA1605; assay: MIC against Gram-negative strain; conditions: Acinetobacter baumannii ATCC BAA1605
[22] = tested on: Escherichia coli ATCC 25218; assay: MIC against Gram-negative strain; conditions: ATCC25218
[23] = tested on: Calu-3 cells; assay: Cytotoxicity in mock-infected Calu-3 cells (XTT); conditions: read-out: CC50, Calu-3 cells, three days
[24] = Severe acute respiratory syndrome-related coronavirus

## O=C(O)CCC(F)(F)C(F)(F)C(F)(F)C(F)(F)C(F)(F)C(F)(F)C(F)(F)C(F)(F)F [Compound 14]
[1]; Severe acute respiratory syndrome coronavirus 2, Vero C1008, 72 h
  EC50: 19 ± 1.5 µM
[1]; VeroE6 cells
  Reduction of the CPE of SARS-CoV-2 in VeroE6 cells (in words): did show antiviral activity
[2]
  CC50: 39 ± 1.4 µM
[3]; VeroE6 cells
  Toxicity in VeroE6 cells (in words): quite toxic
[4]
  Activity against SARS-CoV-2 in Calu-3 cells (in words): active
[4]; Severe acute respiratory syndrome coronavirus 2, 72 h
  EC50: 46 ± 1.9 µM
[5]; Human coronavirus 229E
  EC50: 69 µM
[6]
  CC50: > 100 µM
[7]; [24]
  EC50: 13 ± 5 µM
[7]
  Inhibition of pseudovirus entry in Vero cells (in words): inhibited both entry routes
[8]
  Inhibition of pseudovirus entry in A549-AT cells (in words): inhibited both entry routes
[8]; [24]
  EC50: 24 ± 6 µM
[9]; pH 5.5, Z-Phe-Arg-AMC substrate, read-out: Cathepsin L IC50
  IC50: > 500 µM
[10]
  inhibition at 200 µM: 12 ± 2%
[11]
  CC50: ~53 µM

## teicoplanin [reference compound]
[1]
  EC50: 16 ± 1.7 µM
[3]; mock-infected Vero E6 cells, three days, XTT
  CC50: > 100 µM
[4]
  Activity against SARS-CoV-2 in Calu-3 cells (in words): inactive; also recorded: does not inhibit
  EC50: > 100 µM
[5]
  Activity against HCoV-229E CPE (in words): inactive
  EC50: > 100 µM
[12]
  CC50: > 100 µM
[7]
  EC50: 21 ± 5 µM
  Inhibition of pseudovirus entry in Vero cells (in words): moderately active
[8]
  EC50: > 125 µM
  Inhibition of pseudovirus entry in A549-AT cells (in words): inactive
[9]
  Cathepsin L inhibition (in words): inactive
[9]; at 50 µM
  Cathepsin L inhibition at 50 µM: 5% at 50 µM
[10]; at 200 µM
  3CL^Pro % inhibition at 200 µM: 13 ± 8%
[13]; E. faecalis VAN^R,TEI^R/VanA, 1 strain
  Average MIC value: > 64 µg/mL
[13]; E. faecalis VAN^S, TEI^S, 2 strains
  Average MIC value: 0.25 µg/mL
[13]; E.faecalis JH2-2
  MIC value: 0,25 µg/ml
[13]; E.faecalis OG1RF
  MIC value: 0,25 µg/ml
[13]; E.faecalis V583, VAN,TEI/VanA
  MIC value: >64 µg/mL
[14]; S. aureus 73OL, MRSA
  MIC value: 0,5 µg/ml
[14]; S. aureus 214OL, MRSA
  MIC value: 2 µg/mL
[14]; S. aureus 1041OL, MRSA
  MIC value: 1 µg/mL
[14]; S. aureus A6918, MRSA
  MIC value: 1 µg/mL
[14]; S. aureus A6919, MRSA
  MIC value: 0,5 µg/ml
[14]; S. aureus ATCC29213, MSSA
  MIC value: 0,5 µg/ml
[14]; S. aureus CA-MRSA, 1 strain
  Average MIC value: 0.125 µg/mL
[14]; S. aureus MRSA, 7 strains
  Average MIC value: 1.43 µg/mL
[14]; S. aureus MSSA476, MSSA
  MIC value: 0,25 µg/ml
[14]; S. aureus MSSA, 4 strains
  Average MIC value: 0.375 µg/mL
[14]; S. aureus Mu50, MRSA
  MIC value: 4 µg/mL
[14]; S. aureus N315, MRSA
  MIC value: 1 µg/mL
[14]; S. aureus Newman, MSSA
  MIC value: 0,25 µg/ml
[14]; S. aureus SA564, MSSA
  MIC value: 0,5 µg/ml
[14]; S. aureus USA300, CA-MRSA
  MIC value: 0,125 µg/ml
[15]; S. haemolyticus mecA, 6 strains
  Average MIC value: 112 µg/mL
[15]; S.haemolyticus DALB_R1, mecA
  MIC value: 128 µg/mL
[15]; S.haemolyticus DALB_R2, mecA
  MIC value: 256 µg/mL
[15]; S.haemolyticus DALB_R3, mecA
  MIC value: 32 µg/mL
[15]; S.haemolyticus DALB_R4, mecA
  MIC value: 64 µg/mL
[15]; S.haemolyticus DALB_R5, mecA
  MIC value: 128 µg/mL
[15]; S.haemolyticus ORI_R1, mecA
  MIC value: 64 µg/mL
[16]; S.pyogenes H232
  MIC value: 0,03125 µg/ml
[16]; S.pyogenes H550
  MIC value: 0,25 µg/ml
[16]; S.pyogenes H578
  MIC value: 0,25 µg/ml
[17]; E. faecium VAN^R,TEI^R/VanA, 8 strains
  Average MIC value: > 64 µg/mL
[17]; E. faecium VAN^S, TEI^S, 1 strain
  Average MIC value: 0.5 µg/mL
[17]; E.faecium E335, VAN,TEI,LNZ/VanA
  MIC value: >64 µg/mL
[17]; E.faecium E355, VAN,TEI,LNZ/VanA
  MIC value: >64 µg/mL
[17]; E.faecium E832, VAN,TEI,LNZ/VanA
  MIC value: >64 µg/mL
[17]; E.faecium E854, VAN,TEI,LNZ/VanA
  MIC value: >64 µg/mL
[17]; E.faecium E859, VAN,TEI,LNZ/VanA
  MIC value: >64 µg/mL
[17]; E.faecium E1114, VAN,TEI,LNZ/VanA
  MIC value: >64 µg/mL
[17]; E.faecium E1131, VAN,TEI,LNZ/VanA
  MIC value: >64 µg/mL
[17]; E.faecium E1132, VAN,TEI,LNZ/VanA
  MIC value: >64 µg/mL
[17]; E.faecium TX0016
  MIC value: 0,5 µg/ml
[18]; S. epidermidis mecA, 6 strains
  Average MIC value: 26.7 µg/mL
[18]; S.epidermidis ORI_R1, mecA
  MIC value: 32 µg/mL
[18]; S.epidermidis ORI_R2, mecA
  MIC value: 16 µg/mL
[18]; S.epidermidis ORI_R3, mecA
  MIC value: 32 µg/mL
[18]; S.epidermidis ORI_R4, mecA
  MIC value: 16 µg/mL
[18]; S.epidermidis TEI_R1, mecA
  MIC value: 32 µg/mL
[18]; S.epidermidis TEI_R2, mecA
  MIC value: 32 µg/mL
[19]
  MIC: 256 µg/mL
[20]
  MIC: 256 µg/mL
[21]
  MIC: 128 µg/mL
[22]
  MIC: 256 µg/mL
[23]
  CC50: > 100 µM
